Measurements as given in US8445539B2, “Alpha-aminoamide derivatives useful in the treatment of psychiatric disorders” (priority 2007, dated 2013).

Columns and labels:
Assay type in all cases: in vivo
[1] = system: anxiety-like behaviour in Open Field; experiment: Anxiety open field test; details: open field test in rats
Source text: The Open Field test is commonly used to assess locomotor, exploratory and anxiety-like behaviour in rats or mice. This test is particularly useful in evaluating the effects of anxiolytic and anxiogenic drugs, locomotor responses to drug and as well as behavioural responses to novelty.
The Open Field test task approaches the conflict between the innate fear that rats have of the central area of a novel or brightly lit open field versus their desire to explore new environments. When anxious, the natural tendency of rodents is to prefer staying closed to the walls (thigmotaxis). In this context, anxiety-related behaviour is measured by the degree to which the rat avoids the center of the Open Field test.
The Open Field arena consists of an empty and bright square arena surrounded by walls to prevent animal from escaping. The arena (90 cm×90 cm×40 cm height) was divided into 6×6 grid of equally-sized squares using black tape. […]
The rat is placed in the center of the arena and its behaviour recorded on video over a chosen period (from 5 to 15 min) and scored.
Time spent in each category of square is recorded. In addition, the fifteen minute open-field test is divided into 3 blocks of 5 minutes and total locomotor activity is scored as the number of square entries in each five minute block. […] Finally, the latency to visit the large centre and any one of the four corners is scored manually. […]

[2] = system: d-amphetamine-induced PPI impairment; experiment: Amphetamine-induced PPI deficit (ralfinamide and haloperidol association); details: ralfinamide methanesulfonate per se 60 mg/kg p.o.; d-amphetamine 2.5 mg/kg s.c.; rats
Experimental: A PPI test, carried out according to the method described in Example 4, was performed in rats.

[3] = system: MK-801 induced hyperlocomotion; experiment: MK-801 induced hyperlocomotion in mice; details: MK-801 induced locomotion in mice
Experimental: Glutamate N-methyl-D-aspartate (NMDA) receptor antagonists, like phencyclidine (PCP) or MK-801, elicit schizophrenia-like symptoms in humans and behavioural abnormalities in animals, such as hyperactivity. Atypical antipsychotics decrease hyperlocomotion produced in mice by MK-801 or PCP and this represents a commonly used animal models predictive of efficacy against the symptoms of schizophrenia. Vehicle or compound was injected 30-35 min before the animal entered the activity chambers. Hyperlocomotion was produced in mice by administration of MK-801 (0.3 mg/kg) 15 min before the animal entered the activity chambers (i.e., […] min after vehicle or compound administration) and the total distance traveled in centimeters was determined during a 15-30 min session. The increase in MK-801-induced total distance traveled were attenuated by active compounds.

SMILES: C[C@H](NCc1ccc(OCc2ccccc2F)cc1)C(N)=O [Ralfinamide methanesulfonate, (S)-(+)-2-[4-(2-fluorobenzyloxy)benzylamino]propanamide]
- Activity in anxiety animal model (Example 6) [1]: active
- Reversal of PPI impairment induced by d-amphetamine [2]: did not reverse
- Activity in schizophrenia animal model (Example 5) [3]: active
